Tests used:
[1] = system: HIV-1; conditions: AIDS patients; cited from earlier work
[2] = system: HIV-1; conditions: cited from earlier work
[3] = target: T1, topo I (Homo sapiens, UniProt P11387); assay: Reverse transcriptase assay, linear cDNA synthesis from 5'/3' HIV-1 RNA template in presence of topo I; type: biochemical; conditions: HIV-1 RT with topo I 0.16 unit; CPT 400, 40, 4 and 0 μM; concentration dependent
T1 sequence (P11387 1-765): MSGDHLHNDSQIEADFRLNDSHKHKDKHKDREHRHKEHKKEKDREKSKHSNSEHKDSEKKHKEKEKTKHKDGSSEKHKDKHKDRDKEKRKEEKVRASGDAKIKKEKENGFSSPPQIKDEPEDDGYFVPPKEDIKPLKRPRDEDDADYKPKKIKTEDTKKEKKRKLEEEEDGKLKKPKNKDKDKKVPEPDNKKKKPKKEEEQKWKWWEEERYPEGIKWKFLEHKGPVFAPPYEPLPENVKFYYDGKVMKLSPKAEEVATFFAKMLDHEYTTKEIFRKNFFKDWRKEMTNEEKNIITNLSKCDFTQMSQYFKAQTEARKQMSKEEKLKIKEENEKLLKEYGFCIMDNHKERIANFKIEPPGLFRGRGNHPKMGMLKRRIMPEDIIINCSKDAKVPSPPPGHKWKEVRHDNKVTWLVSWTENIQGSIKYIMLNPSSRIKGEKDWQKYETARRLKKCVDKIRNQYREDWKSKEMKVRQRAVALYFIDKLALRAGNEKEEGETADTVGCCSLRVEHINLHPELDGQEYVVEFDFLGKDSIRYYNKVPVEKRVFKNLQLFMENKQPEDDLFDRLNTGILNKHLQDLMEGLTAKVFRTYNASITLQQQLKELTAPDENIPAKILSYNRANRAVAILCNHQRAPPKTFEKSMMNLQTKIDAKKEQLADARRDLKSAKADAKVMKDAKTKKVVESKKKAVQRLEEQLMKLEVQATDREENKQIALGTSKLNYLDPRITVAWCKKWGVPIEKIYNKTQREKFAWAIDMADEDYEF
Text: Influence of cellular topo I on HIV-1 RT activity. […] An end-labeled primer (*) was employed to initiate cDNA synthesis and would be expected to result in a product of 1481 nucleotides (nt). […] Phosphorescence image analysis of cDNA products following agarose gel electrophoresis. The presence or absence of topo I is indicated by + and −, respectively. Similarly the presence or absence of CPT is indicated by + and −.
To analyze the influence of topo I on linear cDNA synthesis, the template containing both the 5′ and 3′ ends of HIV-1 RNA was used. cDNA synthesis expected to result in a product of 1481 nucleotides was initiated using a nef gene primer end-labeled with [θ-^32P]ATP (5′-[sequence]-3′; nucleotides 9002-9027). Reaction mixtures obtained 300 ng of RNA template in 50 μl of 50 Mm TrisHCL (pH 8.0) containing 150 Mm KCl, 5 Mm MgCl^2, 5 Mm dithiothreitol, 0.5 Mm EGTA, 0.4 unit of RNasin (Promega), 0.1 unit of HIV-1 RT (Seikagaku, Kogyo, Tokyo), 100 ng of primer, 250 μM dNTPs, bovine serum albumin at 0.1 mg/ml, GST-P15 at 0.8 μg/ml 10 μl of glutathione beads (50% vol/vol; Pharmacia), and topo I at final concentrations of 0.16, 0.032 and 0.0064 unit. Samples were incubated at 37° C. for 25 min. […] Gels were dried onto nylon membranes and analyzed with a Fuji BAS2000 phosphorescence imager.

[4] = target: T1, topo I; assay: Reverse transcriptase assay, ssDNA synthesis and strand transfer in presence of topo I; type: biochemical; conditions: topo I 0.16 unit per 50 μl; CPT 400, 40 and 4 μM; concentration-dependent
Text: Analysis of ssDNA synthesis and strand transfer. […] Schematic representation of two RNA templates employed. […] The 3′RNA represents the 3′end of the HIV-1 RNA and contains the R region and the poly(A) tail. ssDNA synthesis was initiated by an end labeled primer (*) corresponding to the primer binding site (PBS) in the 5′RNA. After strand transfer to the 3′RNA, this would be expected to result in a cDNA product of 867 nucleotides. […] Phosphorescence image analysis of the cDNA product after agarose gel electrophoresis. The presence and absence of 5′RNA and 3′RNA templates are indicated by + and −, respectively. The effects of CPT at concentrations of 400, 40 and 4 μM are indicated by +. Topo I was used at the final concentration of 0.16 unit per 50 μl in all experiments.
Reaction mixtures obtained 300 ng of RNA template in 50 μl of 50 Mm TrisHCL (pH 8.0) containing 150 Mm KCl, 5 Mm MgCl^2, 5 Mm dithiothreitol, 0.5 Mm EGTA, 0.4 unit of RNasin (Promega), 0.1 unit of HIV-1 RT (Seikagaku, Kogyo, Tokyo), 100 ng of primer, 250 μM dNTPs, bovine serum albumin at 0.1 mg/ml, GST-P15 at 0.8 μg/ml 10 μl of glutathione beads (50% vol/vol; Pharmacia), and topo I at final concentrations of 0.16, 0.032 and 0.0064 unit. Samples were incubated at 37° C. for 25 min. […] Gels were dried onto nylon membranes and analyzed with a Fuji BAS2000 phosphorescence imager. […] Reaction products were analyzed as above.

[5] = system: HIV-1 IIIB strain; assay: Southern hybridization of DNA from HIV-1 infected MT2 cells with drug treatment; type: cell-based; conditions: HIV-1 IIIB 0.1 m.o.i., 72 hrs, drugs 0.01-10 μg/ml
Method: FIG. 5. Southern hybridization of DNA from HIV-1 infected cells with drug treatment. […] cells, MT2, infected with the HIV-1 IIIB strain were treated with AZT, CPT or TAN at concentrations (from right to left) AZT 0.01, 0.1, 1.0, 10 μg/ml, CPT 0.01, 0.1, 1.0 μg/ml, TAN 0.01, 0.1, 1.0 μg/ml respectively.
MT2 cells were incubated for 2 hours with HIV-1 IIIB strain (Ratner et al., 1985 Nature 313: 277-284) at 0.1 m.o.i. with drugs. Concentrations ranged from no drugs 0,0, AZT 0.01, 0.1, 1, 10 μg/mi, CPT 0.01, 0. 1, 1 μg/ml TAN 0.01, 0. 1, 1 μg/ml, CPT 0.1, 1, 10 μg/ml, TAN 0.1, 1, 10 μg/mi respectively (FIG. 5). After washing with PBS 3 times, cells were incubated again for 72 hrs with or without concentration of drugs as indicated, then lysed with 1% SDS, 10 Mm Tris HCl (pH 8.0), 5 Mm EDTA, 1M NaCl(Hirt's method. Following overnight incubation at 4 C., large molecule of DNA were precipitated by centrifugation. Supernatants were treated with 100 μg/ml of protease K at 56° C. for 2 hrs and after treated with phenol-chloroform, small molecules of DNA were precipitated and subjected to southern hybridization. Transferred nylon membrane (Schleicher & Schuell) were probed with (α-^32P) dCTP-random-primed-labeled primer.

## CC(C)c1nc(CN(C)C(=O)N[C@H](C(=O)N[C@@H](Cc2ccccc2)C[C@H](O)[C@H](Cc2ccccc2)NC(=O)OCc2cncs2)C(C)C)cs1 [ABT-538]
[1]
  CD4 lymphocyte counts: rise substantially
  plasma HIV-1 levels: decrease exponentially
[2]
  antiviral activity in vitro: potent antiviral activity

## CC[C@@]1(O)C(=O)OCc2c1cc1n(c2=O)Cc2cc3ccccc3nc2-1 [CPT, camptothecin]
[3]
  cDNA synthesis (1481 nucleotide product): inhibited
[4]
  cDNA product of 867 nucleotides (ssDNA synthesis and strand transfer): inhibited
[5]
  HIV-replication in HIV-infected cells, Southern blot analysis: reduced HIV-replication
